In ChEMBL document CHEMBL6096678, “Targeting QPCTL: An Emerging Therapeutic Opportunity” (J Med Chem, 2025):
Blank lines part the entries; values can stand above or below the compound they belong to.

Legend:
[1] = target: Glutaminyl-peptide cyclotransferase (Homo sapiens, UniProt Q16769); test: Binding affinity to QPCT (unknown origin) assessed as inhibition constant
[2] = target: T1, Glutaminyl-peptide cyclotransferase-like protein (Homo sapiens, UniProt Q9NXS2); test: Binding affinity to QPTCL (unknown origin) assessed as inhibition constant
[3] = target: T1, Glutaminyl-peptide cyclotransferase-like protein; test: Inhibition of QPCTL (unknown origin)
[4] = target: T1, Glutaminyl-peptide cyclotransferase-like protein; test: Binding affinity to QPCTL (unknown origin) extracted from Escherichia coli BL21 (DE3) assessed as inhibition constant
[5] = target: T1, Glutaminyl-peptide cyclotransferase-like protein; test: Binding affinity to QPCTL (unknown origin) assessed as dissociation constant

T1 sequence (Q9NXS2 whole entry): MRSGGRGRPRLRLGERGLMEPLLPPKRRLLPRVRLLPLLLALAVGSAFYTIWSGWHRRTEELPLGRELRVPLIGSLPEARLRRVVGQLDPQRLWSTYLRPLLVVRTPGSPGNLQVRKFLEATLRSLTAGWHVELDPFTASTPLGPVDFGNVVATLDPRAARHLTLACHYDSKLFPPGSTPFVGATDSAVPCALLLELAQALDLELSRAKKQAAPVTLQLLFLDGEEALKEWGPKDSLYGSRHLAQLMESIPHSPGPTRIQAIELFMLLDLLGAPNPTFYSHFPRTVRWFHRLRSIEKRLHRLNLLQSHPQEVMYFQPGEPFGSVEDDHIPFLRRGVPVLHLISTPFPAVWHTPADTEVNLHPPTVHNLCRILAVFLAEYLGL
Sequence of Glutaminyl-peptide cyclotransferase (Q16769 whole entry): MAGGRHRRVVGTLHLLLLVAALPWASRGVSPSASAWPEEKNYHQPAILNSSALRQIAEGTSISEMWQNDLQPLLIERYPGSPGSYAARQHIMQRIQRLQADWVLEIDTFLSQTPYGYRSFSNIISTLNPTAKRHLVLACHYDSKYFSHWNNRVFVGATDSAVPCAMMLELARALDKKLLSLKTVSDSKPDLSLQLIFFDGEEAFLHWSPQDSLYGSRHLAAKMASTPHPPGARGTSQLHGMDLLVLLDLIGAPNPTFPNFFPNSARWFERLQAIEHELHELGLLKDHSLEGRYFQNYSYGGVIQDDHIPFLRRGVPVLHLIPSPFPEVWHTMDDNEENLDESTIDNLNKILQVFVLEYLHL

Compound: Cc1ccc(-c2ccsc2)c(N2CCC(c3nnc(N)n3C)CC2)n1
IC50 [3]: < 0.001 µM

Compound: Cn1ccnc1 [1-METHYLIMIDAZOLE]
Ki [4]: 79 µM

Compound: O=c1cc(-c2ccc(O)c(O)c2)oc2cc(O)cc(O)c12 [LUTEOLIN]
Kd [5]: 9.4 µM

Compound: CCCOc1ccc([C@H]2CNC(=O)N2c2ccc3[nH]cnc3c2)cc1 [VAROGLUTAMSTAT]
Ki [2]: 0.005 µM

Second part, the compound after the results:

Ki [1]: < 0.1 µM
Ki [2]: < 0.025 µM
Compound: CCCOc1ccc(C2c3c(nn(C)c3C)C(=O)N2c2ccc3[nH]cnc3c2)c(F)c1 (configuration not stated)

Ki [2]: < 0.002 µM
Compound: O=C1[C@H](O)[C@H](c2c(F)cc(-c3cnn(C(F)F)c3)cc2F)N1c1ccc2[nH]cnc2c1
